Legend:
[1] = biological target: T1, microsomal triglyceride transfer protein (MTP) (Mesocricetus auratus, UniProt P55158); assay: Inhibition of MTP activity (transfer of labelled triglyceride from donor to acceptor particle, SPA); type: biochemical; details: MTP from golden hamster liver microsomes; [3H]-triolein transfer to LDL-biot; incubation 18-24 hours at 37° C.; read-out: IC50, concentration that allows a 50% inhibition of MTP
T1 construct: The supernatant comprising the soluble MTP is dialysed; from tissue; host or cells: golden hamster liver microsomes, deoxycholate-solubilised
T1 sequence (P55158 19-895): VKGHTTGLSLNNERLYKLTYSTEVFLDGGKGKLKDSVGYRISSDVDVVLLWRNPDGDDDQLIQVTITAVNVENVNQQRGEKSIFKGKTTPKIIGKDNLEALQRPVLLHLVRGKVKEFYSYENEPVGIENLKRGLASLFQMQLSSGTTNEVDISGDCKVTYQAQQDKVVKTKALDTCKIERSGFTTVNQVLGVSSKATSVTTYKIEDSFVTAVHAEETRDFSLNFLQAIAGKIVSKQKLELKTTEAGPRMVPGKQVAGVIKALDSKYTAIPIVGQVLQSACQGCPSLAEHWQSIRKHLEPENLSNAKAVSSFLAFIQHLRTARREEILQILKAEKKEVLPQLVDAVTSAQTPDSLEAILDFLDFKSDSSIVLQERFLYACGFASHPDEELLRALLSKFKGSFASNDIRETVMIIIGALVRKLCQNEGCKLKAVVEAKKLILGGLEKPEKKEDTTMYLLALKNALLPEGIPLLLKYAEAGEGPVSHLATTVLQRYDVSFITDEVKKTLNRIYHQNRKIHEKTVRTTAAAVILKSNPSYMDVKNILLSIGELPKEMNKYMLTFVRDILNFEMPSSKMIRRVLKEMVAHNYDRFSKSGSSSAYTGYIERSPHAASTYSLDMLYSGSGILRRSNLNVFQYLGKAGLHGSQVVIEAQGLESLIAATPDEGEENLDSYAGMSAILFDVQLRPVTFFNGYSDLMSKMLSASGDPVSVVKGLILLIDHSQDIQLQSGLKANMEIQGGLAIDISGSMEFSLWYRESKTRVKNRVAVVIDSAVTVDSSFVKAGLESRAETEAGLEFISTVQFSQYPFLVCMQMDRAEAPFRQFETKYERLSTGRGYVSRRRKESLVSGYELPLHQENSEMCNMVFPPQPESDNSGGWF
Description: Analysis of the Inhibition of MTP Activity
The inhibition of the activity of microsomal triglyceride transfer protein (MTP) was tested by using the following operating protocol.
The inhibition of MTP activity with a compound can be quantified by observing the inhibition of the transfer of a labelled triglyceride, from a donor particle to an acceptor particle, in the presence of MTP. The procedure for the preparation of MTP is based on the method by Wetterau and Zilversmit (Biochem. Biophys. Acta (1986) 875, 610). A few grams of golden hamster liver are taken and then rinsed several times in a 250 mM sucrose solution at 0° C. All the following steps proceed at +4° C. A homogenate at a concentration of 50% in 250 mM sucrose is prepared using a Teflon mill and then centrifuged for 10 minutes at 10 000× g at +4° C. The supernatant is then centrifuged at 105 000× g for 75 minutes at +4° C. The supernatant is discarded and the microsomal pellet is taken up in 3 ml (per g of starting liver) of Tris/HCl 150 mM pH 8.0. 1-ml aliquot fractions are stored at −80° C. until the time of use.
After thawing a fraction of microsomes (1 ml), 12 ml of refrigerated Tris/HCl 50 mM, KCl 50 mM, MgCl2 5 mM pH 7.4 buffers and 1.2 ml of deoxycholate (0.54% in water) are added. After incubation for 30 minutes at +4° C. with gentle agitation, the suspension is centrifuged at 105 000× g for 75 minutes. The supernatant comprising the soluble MTP is dialysed against Tris/HCl 150 mM, NaCl 40 mM, EDTA 1 mM, 0.02% sodium azide pH 7.4 buffer (5 times one litre over 2-3 days). The MTP is stored at +4° C., is stable for at least 30 days and is used in unmodified form in the test.
The donor particles (liposomes) are prepared from 208 μL of L-phosphatidylcholine at a concentration of 10 mg/ml in chloroform, and 480 μL of. [3H]-triolein at a concentration of 0.5 mCi/ml in toluene. After stirring, the solution is evaporated under nitrogen, taken up in 6 ml of Tris/HCl 50 mM, KCl 50 mM, MgCl2 5 mM pH 7.4 buffer and incubated in an ultrasound bath for 30 minutes at room temperature. The liposomes are stored at +4° C. and sonicated again for 10 minutes before each use.
The acceptor particles are biotinylated low density lipoproteins (LDL-biot). These particles are supplied by the company Amersham.
The reaction mixture is prepared in untreated 1/2 well white plates (Corning Costar) by addition, in the following order, of: 5 μL of HEPES 50 mM, NaCl 150 mM, BSA 0.1% (w/v), 0.05% sodium azide (w/v), pH 7.4 buffer; 5 μL of liposomes; 5 μL of LDL-biot; 5 μL of test products in DMSO; 5 μL of MTP. After incubation for 18-24 hours at 37° C., the reaction is stopped by adding 100 μL of Amersham SPA (Scintillation Proximity Assay) beads coupled to streptavidin, and the radioactivity is counted using a Top Count (Packard) machine at least one hour later. The inhibition of the transfer of the triglycerides with a compound is reflected by a reduction in the transferred radioactivity.
The results are expressed in terms of the IC50, i.e. the concentration that allows a 50% inhibition of MTP.

[2] = tested on: apo B secretion in HepG2 cells; assay: Inhibition of apo B secretion in HepG2 cells (sandwich-ELISA); type: cell-based; details: 24 hours incubation, culture supernatant tested by ELISA specific for human apo B, read-out: IC50, concentration that produces a 50% inhibition of apo B secretion in the HepG2 cells
Description: Analysis of the Reaction of apo B in the HepG2 Human Cell Line:
The activity of a compound according to the invention can be evaluated by measuring the inhibition of apo B secretion in HepG2 cells.
The HepG2 cells (ECACC—No. 85011430) are used as model in the study of the in vitro hepatic secretion of lipoproteins (Dixon J. and Ginsberg H., J. i Lipid. Res., 1993, 34, 167-179).
The HepG2 cells are cultured in Dulbecco's modified Eagle's medium comprising 10% foetal calf serum (DMEM and FBS-Gibco) in 96-well plates under an atmosphere of 5% carbon dioxide for 24 hours (about 70% confluence).
The test compounds are dissolved at a concentration of 2 or 10 mM in dimethyl sulfoxide (DMSO). Serial dilutions (1:3.16) are made in DMSO and are added (1:200—Robot Multimek Beckman) to the growth medium (200 μL) and then finally incubated for 24 hours in the various wells containing the HepG2cells.
The 24-hour culture supernatant diluted to 1:5 (phosphate-buffered saline: PBS comprising 1% bovine serum albumin) is tested according to a sandwich-ELISA method specific for human apo B.
The results are expressed in terms of IC50, i.e. the concentration that produce a 50% inhibition of apo B secretion in the HepG2 cells.

Row | IC50 [1] | IC50 [2] | SMILES
1 | 0.057 µM | 0.012 µM | CCN(C(=O)c1csc(C2CCN(C(=O)c3ccccc3-c3ccc(C(F)(F)F)cc3)CC2)n1)C(C)C(=O)c1ccccc1 (stereo not shown) [Example 3]
2 | 0.72 µM | 0.307 µM | CC(C(=O)c1ccccc1)N(C)C(=O)c1csc(C2CCN(C(=O)c3ccccc3-c3ccc(C(F)(F)F)cc3)CC2)n1 (stereo not shown) [Example 4]
3 | 0.66 µM | 0.286 µM | C[C@H](C(=O)c1ccccc1)N(C)C(=O)c1csc(C2CCN(C(=O)c3ccccc3-c3ccc(C(F)(F)F)cc3)CC2)n1 [Example 5]
4 | 0.385 µM | 0.288 µM | CCN(C(=O)c1csc(C2CCN(C(=O)c3ccccc3-c3ccc(C(F)(F)F)cc3)CC2)n1)C(C)C(=O)c1cccnc1 (stereo not shown) [Example 6]
5 | 0.058 µM | 0.007 µM | CCN(C(=O)c1csc(C2CCN(C(=O)c3ccccc3-c3ccc(C(F)(F)F)cc3)CC2)n1)C(C#N)c1ccccc1 (stereo not shown) [Example 9]
6 | 0.167 µM |  | CC(C)N(C(=O)c1csc(C2CCN(C(=O)c3ccccc3-c3ccc(C(F)(F)F)cc3)CC2)n1)C(C#N)c1ccccc1 (stereo not shown) [Example 10]

Row | SMILES | IC50 [1] | IC50 [2]
7 | CCN(C(=O)c1csc(C2CCN(C(=O)c3cccc(C)c3-c3ccc(OC(F)(F)F)cc3)CC2)n1)C(C)C(=O)c1ccccc1 (stereo not shown) [Example 1, 2-[1-(6-Methyl-4’-trifluoromethoxybiphenyl-2-carbonyl)piperid-4-yl]thiazol-4-carbonyl[N-ethyl-N-(1-methyl-2-oxo-2-phenylethyl)]amide] | 0.051 µM | 0.02 µM

From patent US7674803B2, “Thiazolypiperidine derivatives as MTP inhibitors” (Merck Patent GmbH, priority 2003, dated 2010)
